According to patent publication US20100137377A1, “NOVEL COMPOUNDS” (SOREN EBDRUP ET AL, priority 2007, published 2010):
pIC50: −log10 of the molar value. Where “and” joins values, the source holds several entries; their conditions need not be identical. Equal values may be shown once.

Each compound was assayed against T1, h-11βHSD1 (Homo sapiens, UniProt P28845) (assay: 11βHSD1 enzyme assay (SPA, 3H-cortisone to 3H-cortisol)). Settings: extract of yeast transformed with h-11βHSD1; 120 nM 3H-cortisone, 4 mM β-NADPH, 60 min at 30° C.; several determinations per cell separated by ';'.
T1 construct: made in house
T1 sequence (P28845 whole entry): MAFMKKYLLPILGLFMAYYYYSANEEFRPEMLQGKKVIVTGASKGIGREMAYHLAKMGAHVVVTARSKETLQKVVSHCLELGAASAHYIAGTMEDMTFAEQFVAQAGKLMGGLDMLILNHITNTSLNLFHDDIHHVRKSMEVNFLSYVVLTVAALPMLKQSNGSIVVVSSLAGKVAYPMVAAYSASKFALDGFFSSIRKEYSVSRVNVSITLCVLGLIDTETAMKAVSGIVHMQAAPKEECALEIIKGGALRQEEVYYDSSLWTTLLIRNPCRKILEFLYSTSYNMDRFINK
Format: biochemical
Method: ^3H-cortisone and anti-rabbit Ig coated scintillation proximity assay (SPA) beads were purchased from Amersham Pharmacia Biotech, β-NADPH was from Sigma and rabbit anti-cortisol antibodies were from Fitzgerald. An extract of yeast transformed with h-11βHSD1 (Hutt et al., FEBS Lett., 441, 25 (1998)) was used as the source of enzyme. The test compounds were dissolved in DMSO (10 mM). All dilutions were performed in a buffer containing 50 mM TRIS-HCl (Sigma Chemical Co), 4 mM EDTA (Sigma Chemical Co), 0.1% BSA (Sigma Chemical Co), 0.01% Tween-20 (Sigma Chemical Co) and 0.005% bacitracin (Novo Nordisk A/S), pH=7.4. Optiplate 96 wells plates were supplied by Packard. The amount of ^3H-cortisol bound to the SPA beads was measured on TopCount NXT, Packard.
h-11βHSD1, 120 nM ^3H-cortisone, 4 mM β-NADPH, antibody (1:200), serial dilutions of test compound and SPA particles (2 mg/well) were added to the wells. The reaction was initiated by mixing the different components and was allowed to proceed under shaking for 60 min at 30° C. The reaction was stopped be the addition of 10 fold excess of a stopping buffer containing 500 μM carbenoxolone and 1 μM cortisone. Data was analysed using GraphPad Prism software.
With `O=C(NC1C2CC3CC1CC(O)(C3)C2)c1ccc(Oc2ccc(Cl)cn2)cc1` (centres unmarked) [Compound 3, 4-(5-Chloro-pyridin-2-yloxy)-N-(5-hydroxy-adamantan-2-yl)-benzamide] the pIC50 was 7.25 and 7.05. With `CN(C(=O)c1ccc(Oc2ccc(Cl)cn2)cc1)C1CCC(CO)CC1` (centres unmarked) [Compound 5, 4-(5-Chloro-pyridin-2-yloxy)-N-(4-hydroxymethyl-cyclohexyl)-N-methyl-benzamide] the pIC50 was 7.77 and 7.57. In the case of `O=C(NC1C2CC3CC1CC(CO)(C3)C2)c1ccc(Oc2ccc(Cl)cn2)cc1` (centres unmarked) [Compound 4, 4-(5-Chloro-pyridin-2-yloxy)-N-(5-hydroxymethyl-adamantan-2-yl)-benzamide], the IC50 was 51 nM (2×) and 56 nM. For `O=C(NC1C2CC3CC1CC(O)(C3)C2)c1ccc(Oc2ccc(Cl)cc2Cl)cc1` (centres unmarked) [Compound 1, 4-(2,4-Dichloro-phenoxy)-N-(5-hydroxy-adamantan-2-yl)-benzamide], the pIC50 was 7.14 and 7.09. In the case of `N#Cc1ccc(Oc2ccc(C(=O)NC3C4CC5CC3CC(O)(C5)C4)cc2)nc1` (centres unmarked) [Compound 2, 4-(5-Cyano-pyridin-2-yloxy)-N-(5-hydroxy-adamantan-2-yl)-benzamide], the pIC50 was 6.59 and 6.52.
